Among the test systems are 786-0 renal; LOX IMVI melanoma; MALME-3M melanoma; RXF 393 renal; SK-MEL-28 melanoma; SK-MEL-5 melanoma; SN12C renal; SW-620 colon; UACC-257 melanoma.
What all share (assay): NCI-60 cell line screen, 48 h

The text below walks through data of PubChem BioAssay (NCI).

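Five concentrations, 48 hours, 96-well plates. The concentration for full growth arrest is given as TGI.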

On to `O=C1C[C@H](Sc2ccccc2)C2(OCCO2)[C@@H](Sc2ccccc2)C1`, for which the TGI was more than 30.2 µM with 786-0 renal; 2.17 µM with LOX IMVI melanoma; 7.81 µM with MALME-3M melanoma; 4.25 µM with RXF 393 renal; 10.4 µM with SK-MEL-28 melanoma; 4.23 µM in the assay with SK-MEL-5 melanoma. The TGI in the assay on SN12C renal was found to be 10.6 µM; in the assay on SW-620 colon it was 10.4 µM; with UACC-257 melanoma it was 4.51 µM.

For the molecule `COc1cc(C2SCC(=O)N2c2ccc(NC(=O)c3ccc(N4C(=O)CSC4c4cc(OC)c(OC)c(OC)c4)cc3)cc2)cc(OC)c1OC` (stereo unspecified), the TGI with 786-0 renal, with LOX IMVI melanoma, in the assay on MALME-3M melanoma, in the assay with RXF 393 renal, in the assay on SK-MEL-28 melanoma and in the assay on SK-MEL-5 melanoma was more than 100 µM in each case. Moreover, the TGI in the assay with SN12C renal, in the assay with SW-620 colon and in the assay on UACC-257 melanoma was more than 100 µM in each case.

As to `C=C[C@@H]1C(CO)=CCC2[C@H]1CCC1C(C)(C)C(=O)CC[C@]21C` (stereo partly specified), the TGI in the assay with 786-0 renal, in the assay with LOX IMVI melanoma, in the assay on MALME-3M melanoma, in the assay with RXF 393 renal, in the assay on SK-MEL-28 melanoma and in the assay on SK-MEL-5 melanoma was more than 100 µM throughout. Further, the TGI in the assay on SN12C renal, in the assay with SW-620 colon and in the assay on UACC-257 melanoma was more than 100 µM throughout.

In the case of `Oc1ccccc1/C=N/c1nc2cc3sc(/N=C/c4ccccc4O)nc3cc2s1`, the TGI is more than 100 µM in the assay with 786-0 renal; more than 100 µM in the assay on LOX IMVI melanoma; more than 100 µM with MALME-3M melanoma; more than 85.3 µM in the assay with RXF 393 renal; more than 100 µM with SK-MEL-28 melanoma; more than 100 µM in the assay on SK-MEL-5 melanoma. Further, the TGI in the assay with SN12C renal, with SW-620 colon and in the assay with UACC-257 melanoma was more than 100 µM throughout.

For `COC(=O)[C@]12CC[C@H]3CN(C(=O)OCc4ccccc4)[C@H]([C@H]31)[C@H](c1ccco1)N2S(=O)(=O)c1ccc(C)cc1`, the TGI with 786-0 renal was 37.6 µM; in the assay with LOX IMVI melanoma, 32.3 µM; in the assay on MALME-3M melanoma, 38.3 µM; with RXF 393 renal, 38.1 µM; with SK-MEL-28 melanoma, more than 100 µM; with SK-MEL-5 melanoma, 33.3 µM. Moreover, the TGI is 39 µM in the assay with SN12C renal, more than 100 µM in the assay on SW-620 colon and 50.9 µM with UACC-257 melanoma.

With `CCCn1c(CN(Cc2nc3ccccc3n2CCC)Cc2nc3ccccc3n2CCC)nc2ccccc21`, the TGI with 786-0 renal was more than 32.3 µM; in the assay on LOX IMVI melanoma, 18.9 µM; in the assay with MALME-3M melanoma it was 23.3 µM; in the assay with RXF 393 renal, 8.96 µM; in the assay with SK-MEL-28 melanoma it was 38.1 µM; in the assay on SK-MEL-5 melanoma, 18.1 µM. In addition, the results for the TGI in the assay on SN12C renal, in the assay with SW-620 colon and with UACC-257 melanoma were 6.81 µM, more than 100 µM and more than 42.5 µM, respectively.

On to `C(=N\NC1=NCCCN1)/c1ccc2ccccc2c1`, for which the TGI in the assay with 786-0 renal amounted to 24.2 µM; in the assay on LOX IMVI melanoma, 21 µM; in the assay on MALME-3M melanoma, 33.2 µM; in the assay on RXF 393 renal, 30.3 µM; in the assay with SK-MEL-28 melanoma it was 31.9 µM; in the assay on SK-MEL-5 melanoma, 10.3 µM. Besides, the TGI with SN12C renal was 26.6 µM; in the assay with SW-620 colon, 28.4 µM; in the assay on UACC-257 melanoma, 42.5 µM.

As for `CC(C)/C(Cl)=N\OC(=O)Nc1ccc(C#N)cc1`, the TGI with 786-0 renal came out at 11.8 µM; with LOX IMVI melanoma it was 13.2 µM; in the assay with MALME-3M melanoma it was 6.81 µM; in the assay on RXF 393 renal, 8.01 µM; in the assay on SK-MEL-28 melanoma, 25 µM; with SK-MEL-5 melanoma, 9.91 µM. The TGI came to 26.6 µM in the assay with SN12C renal, 3.36 µM with SW-620 colon and 25.3 µM in the assay on UACC-257 melanoma.

In the case of `COc1ccc(C(OCC2OC(n3cc(C)c(=O)[nH]c3=O)CC2n2cc(Cn3cc(F)c(=O)[nH]c3=O)nn2)(c2ccccc2)c2ccccc2)cc1` (stereo unspecified), the TGI with 786-0 renal was 21.7 µM; in the assay with LOX IMVI melanoma, more than 100 µM; in the assay on MALME-3M melanoma, 31.8 µM; in the assay with RXF 393 renal, 49.6 µM; in the assay with SK-MEL-28 melanoma, 24.9 µM; in the assay on SK-MEL-5 melanoma it was 30.1 µM. The TGI with SN12C renal was 22.8 µM; with SW-620 colon, 21.4 µM; with UACC-257 melanoma it was 28 µM.

In the case of `N#CCCN(CCC#N)c1ccc(/C=C2\N=C(c3ccccc3)N(c3ccc(Cl)cc3)C2=O)cc1`, the TGI in the assay with 786-0 renal, with LOX IMVI melanoma, in the assay with MALME-3M melanoma, in the assay on RXF 393 renal, in the assay with SK-MEL-28 melanoma and in the assay with SK-MEL-5 melanoma was more than 100 µM in each case. Moreover, the TGI with SN12C renal, in the assay on SW-620 colon and in the assay with UACC-257 melanoma was more than 100 µM each time.

As for `O=c1c2cc3c(cc2[nH]c2ncccc12)OCO3`, the TGI with 786-0 renal, in the assay with LOX IMVI melanoma, in the assay with MALME-3M melanoma, in the assay with RXF 393 renal, in the assay with SK-MEL-28 melanoma and in the assay with SK-MEL-5 melanoma was more than 10 µM in each case. For the same molecule, the TGI with SN12C renal, in the assay with SW-620 colon and in the assay on UACC-257 melanoma was more than 10 µM each time.

Consider `CC(O)C1CC1(CO)CNc1cc(Cl)nc(N)n1` (stereo unspecified), for which the TGI in the assay with 786-0 renal, in the assay on LOX IMVI melanoma, with MALME-3M melanoma, in the assay on RXF 393 renal, in the assay with SK-MEL-28 melanoma and with SK-MEL-5 melanoma was more than 100 µM each time. Besides, the TGI in the assay on SN12C renal, in the assay with SW-620 colon and in the assay with UACC-257 melanoma was more than 100 µM throughout.

Regarding `CC1(C)N=C(C(N)=O)c2ncn(CCCO)c2N1`, the TGI in the assay with 786-0 renal, with LOX IMVI melanoma, in the assay on MALME-3M melanoma, with RXF 393 renal, in the assay on SK-MEL-28 melanoma and in the assay with SK-MEL-5 melanoma was more than 100 µM each time. Moreover, the TGI in the assay with SN12C renal, in the assay with SW-620 colon and in the assay on UACC-257 melanoma was more than 100 µM throughout.

Consider `O=P(c1ccccc1)(c1ccccc1)N1O[C@@H](c2ccccc2)C=C[C@H]1c1ccccc1`, for which the TGI was 23.3 µM with 786-0 renal; 24.1 µM in the assay with LOX IMVI melanoma; 29.2 µM with MALME-3M melanoma; 22.9 µM in the assay with RXF 393 renal; 38.3 µM with SK-MEL-28 melanoma; 24.6 µM in the assay on SK-MEL-5 melanoma. Further, the TGI in the assay on SN12C renal was 17.5 µM; in the assay on SW-620 colon, 31.8 µM; with UACC-257 melanoma, 26.3 µM.
